PubChem BioAssay AID1963437 (Molecular Pharmacology Branch, DTP, NCI, 2024)

Test system: OVCAR-8 complex spheroid, growth inhibition
Experiment: Anticancer human tumor OVCAR-8 cell line growth inhibition [Asc];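 further: spheroids exposed to agents for 7 days before readout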;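 on viability, T/C: percent viability relative to DMSO vehicle wells taken as 100%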
Conditions: for IC50: curve of first compound; for viability, T/C: stronger effect = lower value
In short: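 Concentration series start at each agent's clinical Cmax, or at 10 microM when none is established, and drop in half-log steps; agents are applied alone or together to complex spheroids built with HUVEC and hMSC.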

[1] = second compound 0.00949 µM, first compound 0.00316 µM
[2] = second compound 0.00949 µM, first compound 0.01 µM
[3] = second compound 0.00949 µM, first compound 0.0316 µM
[4] = second compound 0.00949 µM, first compound 0.1 µM
[5] = second compound 0.03 µM, first compound 0.00316 µM
[6] = second compound 0.03 µM, first compound 0.01 µM
[7] = second compound 0.03 µM, first compound 0.0316 µM
[8] = second compound 0.03 µM, first compound 0.1 µM
[9] = second compound 0.0949 µM, first compound 0.00316 µM
[10] = second compound 0.0949 µM, first compound 0.01 µM
[11] = second compound 0.0949 µM, first compound 0.0316 µM
[12] = second compound 0.0949 µM, first compound 0.1 µM
[13] = second compound 0.3 µM, first compound 0.00316 µM
[14] = second compound 0.3 µM, first compound 0.01 µM
[15] = second compound 0.3 µM, first compound 0.0316 µM
[16] = second compound 0.3 µM, first compound 0.1 µM
[17] = second compound 0.949 µM, first compound 0.00316 µM
[18] = second compound 0.949 µM, first compound 0.01 µM
[19] = second compound 0.949 µM, first compound 0.0316 µM
[20] = second compound 0.949 µM, first compound 0.1 µM
[21] = second compound 3 µM, first compound 0.00316 µM
[22] = second compound 3 µM, first compound 0.01 µM
[23] = second compound 3 µM, first compound 0.0316 µM
[24] = second compound 3 µM, first compound 0.1 µM

COc1c(OCCCN2CCOCC2)ccc2c3n(c(=NC(=O)c4cnc(N)nc4)nc12)CCN3 + CCN1C(C(=O)NC23CCC(C(=O)O)(CC2)CC3)C(c2cccc(Cl)c2F)C2(C(=O)Nc3cc(Cl)ccc32)C12CCCCC2
IC50 (second compound 0.00949 µM): > 1000 nM | IC50 (second compound 0.03 µM): > 1000 nM | IC50 (second compound 0.0949 µM): > 1000 nM | IC50 (second compound 0.3 µM): > 1000 nM | IC50 (second compound 0.949 µM): > 1000 nM | IC50 (second compound 3 µM): > 1000 nM | viability, T/C [1]: 94.7% | viability, T/C [2]: 92.2% | viability, T/C [3]: 113% | viability, T/C [4]: 170% | viability, T/C (second compound 0.00949 µM, first compound 0.316 µM): 140% | viability, T/C (second compound 0.00949 µM, first compound 1 µM): 97.1% | viability, T/C [5]: 81.5% | viability, T/C [6]: 101% | viability, T/C [7]: 121% | viability, T/C [8]: 134% | viability, T/C (second compound 0.03 µM, first compound 0.316 µM): 133% | viability, T/C (second compound 0.03 µM, first compound 1 µM): 91.2% | viability, T/C [9]: 104% | viability, T/C [10]: 99% | viability, T/C [11]: 117% | viability, T/C [12]: 165% | viability, T/C (second compound 0.0949 µM, first compound 0.316 µM): 154% | viability, T/C (second compound 0.0949 µM, first compound 1 µM): 92.4% | viability, T/C [13]: 103% | viability, T/C [14]: 103% | viability, T/C [15]: 108% | viability, T/C [16]: 153% | viability, T/C (second compound 0.3 µM, first compound 0.316 µM): 133% | viability, T/C (second compound 0.3 µM, first compound 1 µM): 80% | viability, T/C [17]: 93.9% | viability, T/C [18]: 89.8% | viability, T/C [19]: 146% | viability, T/C [20]: 172% | viability, T/C (second compound 0.949 µM, first compound 0.316 µM): 144% | viability, T/C (second compound 0.949 µM, first compound 1 µM): 80.9% | viability, T/C [21]: 111% | viability, T/C [22]: 115% | viability, T/C [23]: 133% | viability, T/C [24]: 153% | viability, T/C (second compound 3 µM, first compound 0.316 µM): 126% | viability, T/C (second compound 3 µM, first compound 1 µM): 90.2%

NC(=O)C(=Cn1cnc(-c2cc(C(F)(F)F)cc(C(F)(F)F)c2)n1)c1cncnc1 + CCN1C(C(=O)NC23CCC(C(=O)O)(CC2)CC3)C(c2cccc(Cl)c2F)C2(C(=O)Nc3cc(Cl)ccc32)C12CCCCC2
IC50 (second compound 0.00949 µM): > 300 nM | IC50 (second compound 0.03 µM): > 300 nM | IC50 (second compound 0.0949 µM): > 300 nM | IC50 (second compound 0.3 µM): > 300 nM | IC50 (second compound 0.949 µM): > 300 nM | IC50 (second compound 3 µM): > 300 nM | viability, T/C (second compound 0.00949 µM, first compound 0.000949 µM): 98.7% | viability, T/C (second compound 0.00949 µM, first compound 0.003 µM): 100% | viability, T/C (second compound 0.00949 µM, first compound 0.00949 µM): 106% | viability, T/C (second compound 0.00949 µM, first compound 0.03 µM): 102% | viability, T/C (second compound 0.00949 µM, first compound 0.0949 µM): 81.8% | viability, T/C (second compound 0.00949 µM, first compound 0.3 µM): 66.3% | viability, T/C (second compound 0.03 µM, first compound 0.000949 µM): 96.5% | viability, T/C (second compound 0.03 µM, first compound 0.003 µM): 90.1% | viability, T/C (second compound 0.03 µM, first compound 0.00949 µM): 111% | viability, T/C (second compound 0.03 µM, first compound 0.03 µM): 89.5% | viability, T/C (second compound 0.03 µM, first compound 0.0949 µM): 82.5% | viability, T/C (second compound 0.03 µM, first compound 0.3 µM): 66.9% | viability, T/C (second compound 0.0949 µM, first compound 0.000949 µM): 88.9% | viability, T/C (second compound 0.0949 µM, first compound 0.003 µM): 102% | viability, T/C (second compound 0.0949 µM, first compound 0.00949 µM): 102% | viability, T/C (second compound 0.0949 µM, first compound 0.03 µM): 105% | viability, T/C (second compound 0.0949 µM, first compound 0.0949 µM): 80.3% | viability, T/C (second compound 0.0949 µM, first compound 0.3 µM): 65.9% | viability, T/C (second compound 0.3 µM, first compound 0.000949 µM): 93.2% | viability, T/C (second compound 0.3 µM, first compound 0.003 µM): 85.1% | viability, T/C (second compound 0.3 µM, first compound 0.00949 µM): 94% | viability, T/C (second compound 0.3 µM, first compound 0.03 µM): 101% | viability, T/C (second compound 0.3 µM, first compound 0.0949 µM): 81% | viability, T/C (second compound 0.3 µM, first compound 0.3 µM): 68.7% | viability, T/C (second compound 0.949 µM, first compound 0.000949 µM): 88.1% | viability, T/C (second compound 0.949 µM, first compound 0.003 µM): 103% | viability, T/C (second compound 0.949 µM, first compound 0.00949 µM): 102% | viability, T/C (second compound 0.949 µM, first compound 0.03 µM): 122% | viability, T/C (second compound 0.949 µM, first compound 0.0949 µM): 73.4% | viability, T/C (second compound 0.949 µM, first compound 0.3 µM): 60% | viability, T/C (second compound 3 µM, first compound 0.000949 µM): 116% | viability, T/C (second compound 3 µM, first compound 0.003 µM): 109% | viability, T/C (second compound 3 µM, first compound 0.00949 µM): 112% | viability, T/C (second compound 3 µM, first compound 0.03 µM): 115% | viability, T/C (second compound 3 µM, first compound 0.0949 µM): 80.5% | viability, T/C (second compound 3 µM, first compound 0.3 µM): 59.8%

NC1CCC(NC2CC2c2ccccc2)CC1 (stereo unspecified) + CCN1C(C(=O)NC23CCC(C(=O)O)(CC2)CC3)C(c2cccc(Cl)c2F)C2(C(=O)Nc3cc(Cl)ccc32)C12CCCCC2
IC50 (second compound 0.00949 µM): > 100 nM | IC50 (second compound 0.03 µM): > 100 nM | IC50 (second compound 0.0949 µM): > 100 nM | IC50 (second compound 0.3 µM): > 100 nM | IC50 (second compound 0.949 µM): > 100 nM | IC50 (second compound 3 µM): > 100 nM | viability, T/C (second compound 0.00949 µM, first compound 0.000316 µM): 81.2% | viability, T/C (second compound 0.00949 µM, first compound 0.001 µM): 113% | viability, T/C [1]: 91.4% | viability, T/C [2]: 109% | viability, T/C [3]: 84.8% | viability, T/C [4]: 90.7% | viability, T/C (second compound 0.03 µM, first compound 0.000316 µM): 93.7% | viability, T/C (second compound 0.03 µM, first compound 0.001 µM): 90.2% | viability, T/C [5]: 96.5% | viability, T/C [6]: 93.8% | viability, T/C [7]: 98.5% | viability, T/C [8]: 101% | viability, T/C (second compound 0.0949 µM, first compound 0.000316 µM): 95.4% | viability, T/C (second compound 0.0949 µM, first compound 0.001 µM): 99.5% | viability, T/C [9]: 90.2% | viability, T/C [10]: 96.5% | viability, T/C [11]: 98.5% | viability, T/C [12]: 90.3% | viability, T/C (second compound 0.3 µM, first compound 0.000316 µM): 98.9% | viability, T/C (second compound 0.3 µM, first compound 0.001 µM): 108% | viability, T/C [13]: 109% | viability, T/C [14]: 110% | viability, T/C [15]: 91.1% | viability, T/C [16]: 103% | viability, T/C (second compound 0.949 µM, first compound 0.000316 µM): 89.2% | viability, T/C (second compound 0.949 µM, first compound 0.001 µM): 109% | viability, T/C [17]: 88% | viability, T/C [18]: 105% | viability, T/C [19]: 106% | viability, T/C [20]: 97.4% | viability, T/C (second compound 3 µM, first compound 0.000316 µM): 113% | viability, T/C (second compound 3 µM, first compound 0.001 µM): 98.2% | viability, T/C [21]: 107% | viability, T/C [22]: 110% | viability, T/C [23]: 119% | viability, T/C [24]: 109%
